The source of these data is US10233195B2, “Anti-fibrotic pyridinones” (InterMune, Inc., priority 2014, dated 2019).

Assay [1] deals with TGF-b induced Endothelin-1 production. Kind of assay: ET-1 assay: inhibitory effect on TGF-b induced endothelin-1 production. The format is cell-based. As to conditions: Homo sapiens, Fibroblast; fibroblasts, stimulant (TGFb, serum, LPA etc), ET-1 in media by ELISA, 4-parameter fit. The procedure, abridged: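 Fibroblasts (primary human lung/dermal, HFL-1, 3T3) serum-starved 0-48 h, preincubated ~30 min with compound, then stimulated (TGFb, serum or LPA) for 16-48 h. Secreted ET-1 measured by ELISA; EC50 from 4-parameter logistic fit, with CC50 from ATPlite in the same wells.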
A general note: In an ELISA, binding on a coated surface is turned into a signal by an enzyme label.

In assay [2] the test system is Fibroblasts (primary human lung and dermal, HFL-1, 3T3 etc). Kind of assay: Cell proliferation assay (BrdU incorporation). As to conditions: HFL1, stimulant (LPA, TGFb, serum etc), 50% inhibition of the increase of BrdU incorporation. The assay is classed as cell-based. As to the method: Assay of Inhibitory Effect on Cell Proliferation (BrdU Incorporation)
Fibroblasts (primary human lung and dermal, HFL-1, 3T3 etc) were plated on a 96-well plate and serum starved for 24-48 hours. The media were then exchanged for media containing stimulants (LPA, TGFb, serum etc) and cultured further for 16-24 hours before BrdU addition. After culturing for another 8 hours, cells were washed with PBS and the amount of BrdU incorporated into the cells was assayed by absorbance at 450 nm using the Cell proliferation ELISA system (RPN250, Amersham LIFE SCIENCE). The difference between the amount of BrdU incorporated in the stimulant-added well and the amount of BrdU incorporated in the well containing no stimulant represented the amount of BrdU incorporation accelerated by stimulant. The increase of BrdU incorporation without the addition of test compounds was set as 100% and the concentration of compound with 50% inhibition in the increase of BrdU incorporation (IC50 value) was determined. The test compounds were added 0-30 min before stimulant addition.
Compounds of some embodiments were prepared according to synthetic methods described herein and assay data obtained for IC50 for BrdU inhibition. The assay data obtained is presented in Table 3, in which A=less than 50 μM, B=greater than or equal to 50 μM and less than or equal to 200 μM; and C=greater than 200 μM.
(Incorporation of labelled thymidine or its analogues reports DNA synthesis.)

The EC50 is the concentration that produces a half-maximal response. Low readings indicate an effect from little substance, high ones a need for much substance. The term IC50 denotes the concentration that inhibits the measured activity by half. Consider `CC(=O)c1ccc(=O)n(-c2ccc(F)cc2)c1` [Compound 13], for which the EC50 in assay [1] is above 200 µM. The molecule further had an IC50 in assay [2] above 200 µM.
As for `COCCOCCOCCOc1ccc(-n2cc(C(C)=O)ccc2=O)cc1` [Compound 21], the EC50 in assay [1] was above 200 µM. In assay [2], this molecule showed an IC50 above 200 µM.
In assay [1], `O=c1ccc2c(n1-c1ccc(OC(F)(F)F)cc1)CCC2` [Compound 28] registered an EC50 of 50 to 200 µM. The molecule also yielded an IC50 in assay [2] of 50 to 200 µM.
With `Cc1cn(-c2ccccc2)c(=O)c2c1CCCC2` [Compound 29], the concentration for a half-maximal effect (EC50) in assay [1] is 50 to 200 µM. The same molecule showed an IC50 in assay [2] above 200 µM.
`Cn1cc(-c2cn(-c3ccccc3)c(=O)c3c2CCCC3)cn1` [Compound 31] returned an EC50 in assay [1] below 50 µM. In addition, the IC50 in assay [2] lay within 50 to 200 µM.
`Cn1cc(-c2cn(-c3ccc(OC(F)(F)F)cc3)c(=O)c3nsnc23)cn1` [Compound 41] registered an IC50 in assay [2] below 50 µM.
Turning to `Cn1cc(-c2cn(-c3ccc(OC(F)(F)F)cc3)c(=O)c3cccnc23)cn1` [Compound 43], in assay [1], the EC50 was below 50 µM. In assay [2], this molecule yielded an IC50 above 200 µM.
Consider `O=c1c2nccnc2c(-c2ccc(F)cc2)cn1-c1ccc(OC(F)(F)F)cc1` [Compound 46], for which the EC50 in assay [1] was below 50 µM. The IC50 in assay [2] is below 50 µM.
The molecule `Cn1cc(-c2cn(-c3ccc(OC(F)(F)F)cc3)c(=O)c3nccnc23)cn1` [Compound 47] had an EC50 in assay [1] below 50 µM. For the same molecule, the IC50 in assay [2] is below 50 µM.
As to `Cc1cn(C)c2c(=O)n(-c3ccc(OC(F)(F)F)cc3)cc(-c3ccc(F)cc3)c12` [Compound 49], the 50% effective concentration (EC50) in assay [1] was below 50 µM. Moreover, the IC50 in assay [2] was below 50 µM.
On to `Cn1cc(-c2cn(-c3ccc(OC(F)(F)F)cc3)c(=O)c3c2OCC(=O)N3Cc2ccccc2)cn1` [Compound 50], for which the 50% effective concentration (EC50) in assay [1] was above 200 µM. Further, the IC50 in assay [2] is below 50 µM.
Taken in the same sequence, the figures for `O=C1COc2c(-c3ccc(F)cc3)cn(-c3ccc(OC(F)(F)F)cc3)c(=O)c2N1Cc1ccccc1` [Compound 51] were above 200 µM and above 200 µM.
For `O=C1COc2c(-c3ccc(F)cc3)cn(-c3ccc(OC(F)(F)F)cc3)c(=O)c2N1` [Compound 52], in that order: above 200 µM and above 200 µM.
For `CN1C(=O)COc2c(-c3ccc(F)cc3)cn(-c3ccc(OC(F)(F)F)cc3)c(=O)c21` [Compound 53], in that order: above 200 µM and above 200 µM.
In the case of `Cn1cnc2c(-c3ccc(F)cc3)cn(-c3ccc(OC(F)(F)F)cc3)c(=O)c21` [Compound 58], the EC50 in assay [1] is below 50 µM. For the same molecule, in assay [2], the IC50 was below 50 µM.
In the case of `Cn1cc(-c2cn(-c3ccc(OC(F)(F)F)cc3)c(=O)c3ncn(C)c23)cn1` [Compound 59], the EC50 in assay [1] was below 50 µM. In assay [2], the IC50 is below 50 µM.
In the case of `CCn1ccc2c(-c3cnn(C)c3)cn(-c3ccc(OC(F)(F)F)cc3)c(=O)c21` [Compound 60], the concentration giving a half-maximal response (EC50) in assay [1] was below 50 µM. The molecule also showed an IC50 in assay [2] below 50 µM.
As for `CCOc1ccc(Oc2cc(=O)n(-c3ccc(OC(F)(F)F)cc3)cc2-c2cnn(C)c2)cc1Cl` [Compound 155], the IC50 in assay [2] is below 50 µM.
The same measure, in the same setting: the figure for `CCOc1ccc(-n2cc(-c3cn(C)nc3C(F)(F)F)c(C)cc2=O)c(C)c1` [Compound 239] is below 50 µM; for `CCOc1ccc(-n2cc(-c3cnn(C)c3)c(Cl)cc2=O)c(C)c1` [Compound 538] it is 50 to 200 µM.
In assay [2], `CCOc1ccc(-n2cc(-c3ccc(F)cc3)c(OCCOC)cc2=O)c(C)c1` [Compound 551] returned an IC50 below 50 µM.
The same measure, in the same setting: for `CCn1c(=O)oc2cc(-c3c[nH]c(=O)cc3C)ccc21` [Compound 564] the value was below 50 µM; for `CCn1cnc2c(=O)n(-c3ccc(OC(F)(F)F)cc3)cc(-c3cn[nH]c3)c21` [Compound 640], above 200 µM.
The same measure, in the same setting: the figure for `CCn1ncc2c(-c3cnn(C)c3)cn(-c3ccc(OC(F)(F)F)cc3)c(=O)c21` [Compound 658] is above 200 µM; for `Cc1cc(=O)[nH]cc1-c1ccc2c(c1)N(C)C(=O)CO2` [Compound 662] it is above 200 µM.
Same read-out and setting: the figure for `Cn1cc(-c2cn(-c3ccc(OC(F)(F)F)cc3)c(=O)cc2NCc2cccnn2)cn1` [Compound 664] is below 50 µM.
`Cn1cc(-c2cn(-c3ccc(OC(F)(F)F)cc3)c(=O)c3nn(CCF)nc23)cn1` [Compound 679] returned an EC50 in assay [1] below 50 µM.
The same measure, in the same setting: for `CCn1nc2c(-c3ccc(F)cc3)cn(-c3ccc(OC(F)(F)F)cc3)c(=O)c2n1` [Compound 680] the value was above 200 µM; for `Cn1cc(-c2cn(-c3ccc(OC(F)(F)F)cc3)c(=O)c3c2CCN3C(=O)OC(C)(C)C)cn1` [Compound 690], below 50 µM; for `CCOCCn1ccc2c(-c3cn[nH]c3)cn(-c3ccc(OC(F)(F)F)cc3)c(=O)c21` [Compound 691], below 50 µM.
On the same count and under the same terms, for `CC(C)OCCn1ccc2c(-c3cn[nH]c3)cn(-c3ccc(OC(F)(F)F)cc3)c(=O)c21` [Compound 692] the value was below 50 µM; for `CC(=O)N1CCc2c(-c3cnn(C)c3)cn(-c3ccc(OC(F)(F)F)cc3)c(=O)c21` [Compound 693], 50 to 200 µM; for `CCn1ccc2c(=O)n(-c3ccc(OC(F)(F)F)cc3)cc(-c3cnn(C)c3)c21` [Compound 694], below 50 µM.
The molecule `Cn1cc(-c2cn(-c3ccc(OC(F)(F)F)cc3)c(=O)c3cc[nH]c23)cn1` [Compound 695] came in with an EC50 in assay [1] below 50 µM.
Molecule `CCOc1ccc(-n2cc(-c3cnn(C)c3)c(OCCOC(C)C)cc2=O)c(C)c1` [Compound 696] gave a concentration for a half-maximal effect (EC50) in assay [1] of 50 to 200 µM.
Molecule `CCOc1ccc(-n2cc(-c3cnn(C)c3)c(OCCOCCOC)cc2=O)c(C)c1` [Compound 697] displayed an EC50 in assay [1] of 50 to 200 µM.
For the molecule `CCOc1ccc(-n2cc(-c3cnn(C)c3)c(OC3CCOCC3)cc2=O)c(C)c1` [Compound 698], the EC50 in assay [1] is 50 to 200 µM.
In assay [1], `CCOc1ccc(-n2cc(-c3cnn(C)c3)c(NCc3ccccn3)cc2=O)c(C)c1` [Compound 699] showed an EC50 of 50 to 200 µM.
Same read-out and setting: the figure for `CCOc1ccc(-n2cc(-c3cnn(C)c3)c(NCc3ccncc3)cc2=O)c(C)c1` [Compound 700] is 50 to 200 µM; for `CCOc1ccc(-n2cc(-c3cnn(C)c3)c(NCc3cccnc3)cc2=O)c(C)c1` [Compound 701] it is below 50 µM.
In assay [1], `CCOc1ccc(-n2cc(-c3cnn(C)c3)c(NCc3ccc(F)cc3F)cc2=O)c(C)c1` [Compound 702] yielded a concentration for a half-maximal effect (EC50) below 50 µM.
Same read-out and setting: the figure for `CCOc1ccc(-n2cc(-c3cnn(C)c3)c(NCc3cc(F)cc(F)c3)cc2=O)c(C)c1` [Compound 703] is below 50 µM; for `CCOc1ccc(-n2cc(-c3cnn(C)c3)c(NCc3ccc(C#N)cc3)cc2=O)c(C)c1` [Compound 704] it is below 50 µM; for `CCOc1ccc(-n2cc(-c3cnn(C)c3)c(N(C)Cc3ccccc3)cc2=O)c(C)c1` [Compound 705] it is below 50 µM.
The molecule `CCOc1ccc(CNc2cc(=O)n(-c3ccc(OCC)cc3C)cc2-c2cnn(C)c2)c(C)c1` [Compound 706] gave an EC50 in assay [1] below 50 µM.
Consider `CCOc1ccc(-n2cc(-c3cnn(C)c3)c(NCc3ccc(OCCOC)cc3)cc2=O)c(C)c1` [Compound 707], for which, in assay [1], the EC50 is below 50 µM.
Still for that read-out and setting: the figure for `Cn1cc(-c2cc(=O)n(-c3ccc(OC(F)(F)F)cc3)cc2-c2cnn(C)c2)cn1` [Compound 708] is 50 to 200 µM; for `O=c1ccc(C(F)(F)F)cn1-c1ccc(NCCN2CCN(CCO)CC2)cc1Cl` [Compound 709] it is 50 to 200 µM; for `Cc1nc2ccn(-c3ccc(OC(F)(F)F)cc3)c(=O)c2s1` [compound 585] it is above 200 µM.
